The record followed here is a melting point compilation (Tetko et al.).

For orientation: melting point means the temperature of the solid-liquid transition. `Cc1nn(C)c(Cl)c1[N+](=O)[O-]` came in with a melting point of 75 to 77 °C. As to `Cc1nnc2sc(SCc3ccccc3)nn2c1=O`, the melting point was 171 to 172 °C. Compound `O=C(O)Cc1csc2ccccc12` displayed a melting point of 110 °C.

In turn, `CCOC(=O)c1cc2cc(OC)ccc2o1` returned a melting point of 59 to 61 °C. In turn, `O=C(O)C(O)C(=O)O` had a melting point of 157 °C. As to `O=C(/C=C/C(=O)c1ccccc1)c1ccccc1`, the melting point lay within 110 to 111 °C. `COc1ccc(C(=O)O)c(Cl)c1OC` displayed a melting point of 193 to 196 °C. In turn, `CCCCCCCCCCCCCc1ccccc1` had a melting point of 10 °C. In turn, `O=C1OC(c2ccccc2)=N/C1=C/c1ccc(-c2ccc(Br)cc2)o1` returned a melting point of 180 °C.

`NC(=O)c1sccc1N` displayed a melting point of 120 to 122 °C. As for `ClCc1ccc(CCl)cc1`, the melting point is 100 °C. Compound `CCC(C)(C)c1ccc(O)c(C(C)(C)CC)c1` yielded a melting point of 25 °C. `O=C(O)CSCC(=O)NC1CCSC1=O` (centres undefined) came in with a melting point of 156 °C. `O/N=C1/CC(c2ccccc2)Cc2ccncc21` (centres undefined): the melting point is 227 °C. As for `O=C1CC2CCCCC2C1` (centres undefined), the melting point stood at 10 °C.

Take `CC(C)(C)c1cc(O)c(O)c(O)c1`: the melting point was 135 °C. Turning to `CCOC(=O)C1=NN(c2ccccc2)C(=O)C1C(Br)C1(Br)C(=O)N(c2ccccc2)N=C1C(=O)OCC` (centres undefined), the melting point came to 201 °C. The value for `CCOC(=O)c1cc2ccccc2o1` was 30.5 °C; that for `O=C(Nc1ccc(I)cc1)C(C(F)(F)F)C(F)(F)F` was 235 to 237 °C; that for `COc1cc(OC)n2nc(S(=O)(=O)Nc3c(Cl)ccc(C)c3Cl)nc2n1` was 211 °C.

Turning to `CC(=O)Nc1c(I)c(NC(C)=O)c(I)c(C(=O)O)c1I`, the melting point is 300 °C.

`Cc1ccc(Cl)c(C)c1` came in with a melting point of -32.5 °C. Regarding `Cc1nn(-c2ccccc2)c(Cl)c1C=O`, the melting point was in the range of 144 to 148 °C.

As to `Cc1cc(C)c(CC(=O)c2oc3ccccc3c2N)c(C)c1`, the melting point fell in the range of 188 to 189 °C. `C=Cc1ccccc1` came in with a melting point of -31 °C. For `N#CC(C#N)=Cc1ccc(Cl)cc1` the value was 91 °C. On to `CC(=O)Nc1ccc(C(C)=O)c(O)c1`, for which the melting point was in the range of 143 to 145 °C.

The compound `CCCCNCC` registered a melting point of -78 °C. For `Clc1cccc2cc3ccccc3cc12` the value was 83.5 °C; for `N=c1oc2ccccc2cc1C(N)=S`, 254 °C; for `COC(=O)c1cc(C)nc(Cl)n1`, 110 to 111 °C. `CCOC(=O)CSc1c(C)[nH]c2ccccc12` returned a melting point of 72 to 75 °C. On to `N#CCc1coc2ccccc12`, for which the melting point was 39 to 41 °C. As for `Fc1cccc(-c2cccc(F)c2)c1`, the melting point was 8 °C. As to `O=[N+]([O-])c1ccccc1N1CCCCC1`, the melting point was in the range of 77 to 79 °C.

The compound `Nc1cccc(-c2cccnc2)c1` yielded a melting point of 74 to 78 °C.

Regarding `NC1c2ccccc2CC1O` (centres undefined), the melting point was 117 to 121 °C.

The compound `Cc1ccc2ccccc2c1N` registered a melting point of 32 °C. In turn, `NC(c1cccc2ccccc12)C(N)c1cccc2ccccc12` (centres undefined) came in with a melting point of 174 to 177 °C.

`CC1(C)CC(=O)c2c(C(=O)c3ccc(Cl)cc3)noc2C1` showed a melting point of 126 °C.

The compound `CSc1nc(N)nc(C(C)C)n1` showed a melting point of 127 to 130 °C.

The compound `CC(=O)OC1C(=O)C2=C(C(=O)C13CC3C)C(O)C(O)C1C(C)(C)CCCC21C` (centres undefined) displayed a melting point of 180 to 182 °C.

In the case of `CC(=C(C)c1ccccc1)c1ccccc1`, the melting point lay within 64 to 66 °C. The compound `C(=C(/c1ccccc1)c1nc2ccccc2s1)/c1ccccc1` displayed a melting point of 109 °C. Compound `CC1(C)CC(O)CC(C)(C)N1` gave a melting point of 131 °C. With `c1csc(SSc2cccs2)c1`, the melting point is 55 °C. In the case of `CC(C)n1cc(C#N)c(=O)[nH]c1=O`, the melting point fell in the range of 265 to 268 °C. `CC(C)(C)CCO` gave a melting point of -60 °C. For `O=C(Cl)c1cccc2nsnc12` the value was 110 to 114 °C; for `OC1COC(O)C(O)C1O` (centres undefined), 152 to 160 °C; for `COc1ncccc1C(=O)O`, 149 °C. On to `CC1(C)c2ccccc2NC1C(N)=O` (centres undefined), for which the melting point lay within 168 to 170 °C. Consider `Cc1cc(N=Nc2ccc(N=Nc3ccccc3)cc2)c(C(C)C)cc1N=Nc1ccc(N=Nc2ccccc2)cc1`, for which the melting point came out at 226 °C. As for `Cc1ccc(NC(=O)C(C(F)(F)F)C(F)(F)F)cc1C`, the melting point was determined as 189 °C. For `CC1(C)OC(C)(C(C)(C)O)CCC1C(=O)O` (centres undefined), the melting point was 111 °C. `O=C(Cl)c1ccc(Br)cc1F` came in with a melting point of 25 °C. `O=P1(O)Oc2ccc3ccccc3c2-c2c(ccc3ccccc23)O1` had a melting point of 320 °C. In turn, `FC(F)(F)c1ccc(N2CCCNCC2)nc1` registered a melting point of 50 to 53 °C. The value for `CCOc1ccccc1OCCBr` was 42 °C. In turn, `Brc1ccc2[nH]c3ccc(Br)cc3c2c1` displayed a melting point of 212 °C. `OCC#Cc1cc(C(F)(F)F)cc(C(F)(F)F)c1` registered a melting point of 58 to 60 °C.

Regarding `CCN(CC)c1ccc(N=O)cc1`, the melting point turned out to be 87.5 °C. As to `COc1ccc(C=CC(=O)O)c(Cl)c1OC`, the melting point fell in the range of 217 to 218 °C. `OC1(C#Cc2ccccc2)Cc2ccccc21` (centres undefined) came in with a melting point of 99 °C. On to `CCC(C)CC`, for which the melting point is -118 °C.

`Cc1cc(C)c(P(c2c(C)cc(C)cc2C)c2c(C)cc(C)cc2C)c(C)c1` returned a melting point of 187 °C.

`C=C(C)CCCCCCCCCCCCC` had a melting point of -7 °C. On to `CCOC(=O)C(CC)c1ccc(C)cc1` (centres undefined), for which the melting point stood at 130 °C.

`CC(=O)OCC(=O)C1(O)CCC2C3CC(C)C4=CC(=O)C=CC4(C)C3C(O)CC21C` (centres undefined) had a melting point of 206 °C. Compound `O=Cc1ccccc1OC1CCOCC1` came in with a melting point of 67 to 70 °C. `COc1ccc2c(c1)CC1(CCC(c3ccc(C(C)(C)C)cc3)CC1)C2` (centres undefined) returned a melting point of 84 to 85 °C. Consider `COC(=O)c1ccc(C=CC(=O)c2ccccc2)cc1`, for which the melting point was in the range of 119 to 120 °C. On to `Cc1ccc(CNC(=O)c2cc([N+](=O)[O-])cc([N+](=O)[O-])c2)c(C)c1`, for which the melting point was found to be 180 °C. In the case of `O=[N+]([O-])c1ccc(S(=O)(=O)F)cc1`, the melting point lay in the range of 76 to 80 °C. On to `O=C(Nc1ccc2cc(OC(=O)c3ccccc3)ccc2c1)c1ccccc1`, for which the melting point lay within 224 to 229 °C. Consider `Cc1onc(-c2ccccc2)c1I`, for which the melting point lay within 104 to 105 °C.

For the compound `OCc1csc(-c2ccccc2)n1`, the melting point was in the range of 65 to 69 °C. The value for `CCOC(=O)OCC` was -43 °C. Compound `CCCCCCCCCCCCCCCC(=O)Oc1ccc([N+](=O)[O-])cc1` displayed a melting point of 66 °C. The compound `O=[N+]([O-])c1cccc(C=NNc2ccccc2)c1` displayed a melting point of 123 °C. On to `CN(C)c1ccc(N=C=O)cc1`, for which the melting point was determined as 38 °C. The compound `COC(=O)[C@H](C)On1c(C)csc1=S` yielded a melting point of 69.8 °C.

Compound `CCOc1cccc(F)c1` came in with a melting point of -27.5 °C. `O=S(=O)(Cl)c1ccc(N2CCOCC2)nc1` had a melting point of 118 °C.

As for `Cc1c(C)c(Br)c(Br)c(Br)c1Br`, the melting point came to 262 °C. The value for `Oc1cccnc1Br` was 185 to 188 °C. The value for `O=C(Oc1ccc(Cl)cc1)c1ccc(C(=O)Oc2ccc(Cl)cc2)cc1` was 197 °C; that for `Cc1[nH]nc(Cl)c1[N+](=O)[O-]` was 111 °C; that for `CCC(C)Nc1ccc(NC(C)CC)cc1` (centres undefined) was 18 °C. With `CC12CCC(=O)CC1CCC1C2CCC2(C)C1CCC2(C)O` (centres undefined), the melting point came to 192 °C. As for `CCCCCCCOC(=O)CCCCCCC`, the melting point is -10.6 °C.

In turn, `CC1(C)Cc2cccc(C=O)c2O1` gave a melting point of 81 to 83 °C. Consider `COc1ccccc1NC(=O)c1cnc(C(C)(C)C)c(Cl)n1`, for which the melting point lay in the range of 118 to 119 °C. Consider `CSc1ccc(Br)cc1`, for which the melting point is 38.5 °C. For `CC(=O)C1C(=O)C2(C)CCC1C2(C)C` (centres undefined) the value was 201 °C. `Cc1onc(-c2c(Cl)cccc2Cl)c1C(N)=S` registered a melting point of 173 to 176 °C. The value for `CC(=O)Oc1ccc2c(c1)Oc1cc(OC(C)=O)ccc1C21OC(=O)c2ccccc21` was 200 to 205 °C; that for `CCN=C=S` was -5.9 °C. The compound `O=C(O)c1cccc2c1-c1ccc(I)cc1C2` displayed a melting point of 265 to 267 °C. For `O=C1C=C(NCCc2ccccn2)C(=O)c2ccccc21` the value was 128 to 129 °C; for `O=C(Oc1cccc([N+](=O)[O-])c1)c1ccccc1`, 95 °C; for `Nc1nn2c(C(F)(F)F)cc(-c3cccs3)nc2c1/N=N/c1ccc(F)cc1`, 220 °C. The value for `CC1(C)CCCC(O)C1` (centres undefined) was 11.5 °C. Take `CC(CS)C(=O)N1CCCC1C(=O)O` (centres undefined): the melting point was 106 °C. In the case of `OCC1CCCN2CCCCC12` (centres undefined), the melting point stood at 70 °C. `CC12C(=O)OC(=O)C1(C)C1CCC2O1` (centres undefined) had a melting point of 218 °C.

With `CSC(SC)=C(C#N)C(=O)c1ccc(Cl)cc1`, the melting point was 82 to 84 °C. Consider `CC1=CC(=O)C(C(=O)OC2CC(C)CCC2C(C)C)C(C)C1C(=O)OC1CC(C)CCC1C(C)C` (centres undefined), for which the melting point was 185 to 186 °C. For the compound `CCCCCCc1ccccc1`, the melting point is -61 °C. Turning to `NC(=O)CC1(CC(=O)O)CCCCC1`, the melting point lay in the range of 140 to 145 °C.

`COc1cc(C=Nn2c(C)cc(C)c(C#N)c2=O)ccc1O` showed a melting point of 259 to 260 °C.

Consider `NNC(=S)NCCN1CCCCC1`, for which the melting point was in the range of 121 to 123 °C. The value for `C=C(C)C(=O)O` was 16 °C; that for `CCOC(=O)C(=O)CC(=O)c1cccs1` was 38 to 40 °C.
